# According to PubChem BioAssay AID1963839 (Molecular Pharmacology Branch, DTP, NCI, 2024):
# System: 817829-284-R-J1-PDC complex spheroid viability
# Assay: Anticancer human tumor 817829-284-R-J1-PDC patient-derived colon adenocarcinoma cell line growth inhibition [POLQ]
# Conditions: for IC50: curve of first compound; for viability, T/C: stronger effect = lower value
# How it was run: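 Three-cell-type spheroids modelling solid tumor plus stroma served as the readout system; POL inhibitors were tested individually and in combination, concentration ranges set by clinical Cmax where known.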
# [1] = second compound 0.0316 µM, first compound 0.0316 µM
# [2] = second compound 0.0316 µM, first compound 0.1 µM
# [3] = second compound 0.0316 µM, first compound 0.316 µM
# [4] = second compound 0.0316 µM, first compound 1 µM
# [5] = second compound 0.0316 µM, first compound 3.16 µM
# [6] = second compound 0.0316 µM, first compound 10 µM
# [7] = second compound 0.1 µM, first compound 0.0316 µM
# [8] = second compound 0.1 µM, first compound 0.1 µM
# [9] = second compound 0.1 µM, first compound 0.316 µM
# [10] = second compound 0.1 µM, first compound 1 µM
# [11] = second compound 0.1 µM, first compound 3.16 µM
# [12] = second compound 0.1 µM, first compound 10 µM
# [13] = second compound 0.316 µM, first compound 0.0316 µM
# [14] = second compound 0.316 µM, first compound 0.1 µM
# [15] = second compound 0.316 µM, first compound 0.316 µM
# [16] = second compound 0.316 µM, first compound 1 µM
# [17] = second compound 0.316 µM, first compound 3.16 µM
# [18] = second compound 0.316 µM, first compound 10 µM
# [19] = second compound 1 µM, first compound 0.0316 µM
# [20] = second compound 1 µM, first compound 0.1 µM
# [21] = second compound 1 µM, first compound 0.316 µM
# [22] = second compound 1 µM, first compound 1 µM
# [23] = second compound 1 µM, first compound 3.16 µM
# [24] = second compound 1 µM, first compound 10 µM
# [25] = second compound 3.16 µM, first compound 0.0316 µM
# [26] = second compound 3.16 µM, first compound 0.1 µM
# [27] = second compound 3.16 µM, first compound 0.316 µM
# [28] = second compound 3.16 µM, first compound 1 µM
# [29] = second compound 3.16 µM, first compound 3.16 µM
# [30] = second compound 3.16 µM, first compound 10 µM
# [31] = second compound 10 µM, first compound 0.0316 µM
# [32] = second compound 10 µM, first compound 0.1 µM
# [33] = second compound 10 µM, first compound 0.316 µM
# [34] = second compound 10 µM, first compound 1 µM
# [35] = second compound 10 µM, first compound 3.16 µM
# [36] = second compound 10 µM, first compound 10 µM
# [37] = second compound 0.0316 µM, first compound 0.00316 µM
# [38] = second compound 0.0316 µM, first compound 0.01 µM
# [39] = second compound 0.1 µM, first compound 0.00316 µM
# [40] = second compound 0.1 µM, first compound 0.01 µM
# [41] = second compound 0.316 µM, first compound 0.00316 µM
# [42] = second compound 0.316 µM, first compound 0.01 µM
# [43] = second compound 1 µM, first compound 0.00316 µM
# [44] = second compound 1 µM, first compound 0.01 µM
# [45] = second compound 3.16 µM, first compound 0.00316 µM
# [46] = second compound 3.16 µM, first compound 0.01 µM
# [47] = second compound 10 µM, first compound 0.00316 µM
# [48] = second compound 10 µM, first compound 0.01 µM
# 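Further: spheroids exposed to compounds for 7 days.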
# 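Wherever viability, T/C is given: 100% = DMSO vehicle-treated spheroids.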
smiles,measurement,setting,value
CC1COCCN1c1cc(-c2ccnn2C)c2ccnc(-c3ccn[nH]3)c2n1 (stereo not drawn) + Cc1cccc(N(C)C(=O)C2C(O)CCN2c2nc(C)cc(C(F)(F)F)c2C#N)c1,IC50,second compound 0.0316 µM,< 31.6 nM
same,IC50,second compound 0.1 µM,< 31.6 nM
same,IC50,second compound 0.316 µM,< 31.6 nM
same,IC50,second compound 1 µM,< 31.6 nM
same,IC50,second compound 3.16 µM,32.7 nM
same,IC50,second compound 10 µM,< 31.6 nM
same,"viability, T/C",[1],36.6%
same,"viability, T/C",[2],19.1%
same,"viability, T/C",[3],6.76%
same,"viability, T/C",[4],4.35%
same,"viability, T/C",[5],3.09%
same,"viability, T/C",[6],2.85%
same,"viability, T/C",[7],33.4%
same,"viability, T/C",[8],16.9%
same,"viability, T/C",[9],7.78%
same,"viability, T/C",[10],4.15%
same,"viability, T/C",[11],3.55%
same,"viability, T/C",[12],2.55%
same,"viability, T/C",[13],45.2%
same,"viability, T/C",[14],15.3%
same,"viability, T/C",[15],6.75%
same,"viability, T/C",[16],4.29%
same,"viability, T/C",[17],3.67%
same,"viability, T/C",[18],2.6%
same,"viability, T/C",[19],33.9%
same,"viability, T/C",[20],13.1%
same,"viability, T/C",[21],5.41%
same,"viability, T/C",[22],4.86%
same,"viability, T/C",[23],3.3%
same,"viability, T/C",[24],2.87%
same,"viability, T/C",[25],50.8%
same,"viability, T/C",[26],21.9%
same,"viability, T/C",[27],5.75%
same,"viability, T/C",[28],3.57%
same,"viability, T/C",[29],3.34%
same,"viability, T/C",[30],3.14%
same,"viability, T/C",[31],36.6%
same,"viability, T/C",[32],20%
same,"viability, T/C",[33],7.43%
same,"viability, T/C",[34],4.51%
same,"viability, T/C",[35],3.57%
same,"viability, T/C",[36],2.62%
CCCS(=O)(=O)Nc1ccc(F)c(C(=O)c2c[nH]c3ncc(-c4ccc(Cl)cc4)cc23)c1F + Cc1cccc(N(C)C(=O)C2C(O)CCN2c2nc(C)cc(C(F)(F)F)c2C#N)c1,IC50,second compound 0.0316 µM,2980 nM
same,IC50,second compound 0.1 µM,4450 nM
same,IC50,second compound 0.316 µM,4070 nM
same,IC50,second compound 1 µM,3710 nM
same,IC50,second compound 3.16 µM,3810 nM
same,IC50,second compound 10 µM,2390 nM
same,"viability, T/C",[1],82.6%
same,"viability, T/C",[2],75.3%
same,"viability, T/C",[3],81.4%
same,"viability, T/C",[4],84.3%
same,"viability, T/C",[5],48.3%
same,"viability, T/C",[6],6.4%
same,"viability, T/C",[7],86.5%
same,"viability, T/C",[8],83.7%
same,"viability, T/C",[9],81.9%
same,"viability, T/C",[10],80.8%
same,"viability, T/C",[11],68.1%
same,"viability, T/C",[12],8.39%
same,"viability, T/C",[13],94.9%
same,"viability, T/C",[14],89.6%
same,"viability, T/C",[15],76.4%
same,"viability, T/C",[16],81.8%
same,"viability, T/C",[17],63.8%
same,"viability, T/C",[18],6.86%
same,"viability, T/C",[19],103%
same,"viability, T/C",[20],91.9%
same,"viability, T/C",[21],90.8%
same,"viability, T/C",[22],80.5%
same,"viability, T/C",[23],58.2%
same,"viability, T/C",[24],6.61%
same,"viability, T/C",[25],104%
same,"viability, T/C",[26],97%
same,"viability, T/C",[27],83.3%
same,"viability, T/C",[28],74.3%
same,"viability, T/C",[29],66.5%
same,"viability, T/C",[30],8.21%
same,"viability, T/C",[31],85.7%
same,"viability, T/C",[32],76.5%
same,"viability, T/C",[33],66.5%
same,"viability, T/C",[34],64.2%
same,"viability, T/C",[35],49.5%
same,"viability, T/C",[36],4.19%
COc1cccc(OCCCN)c1-c1cc(Nc2cnc(C#N)cn2)n[nH]1 + Cc1cccc(N(C)C(=O)C2C(O)CCN2c2nc(C)cc(C(F)(F)F)c2C#N)c1,IC50,second compound 0.0316 µM,4.8 nM
same,IC50,second compound 0.1 µM,5.63 nM
same,IC50,second compound 0.316 µM,5.68 nM
same,IC50,second compound 1 µM,5.28 nM
same,IC50,second compound 3.16 µM,4.83 nM
same,IC50,second compound 10 µM,5.22 nM
same,"viability, T/C",[37],70.3%
same,"viability, T/C",[38],14.5%
same,"viability, T/C",[1],5.94%
same,"viability, T/C",[2],4.36%
same,"viability, T/C",[3],4.2%
same,"viability, T/C",[4],2.81%
same,"viability, T/C",[39],86.8%
same,"viability, T/C",[40],13.4%
same,"viability, T/C",[7],5.69%
same,"viability, T/C",[8],4.81%
same,"viability, T/C",[9],4.14%
same,"viability, T/C",[10],2.6%
same,"viability, T/C",[41],84.9%
same,"viability, T/C",[42],16.4%
same,"viability, T/C",[13],4.73%
same,"viability, T/C",[14],4.19%
same,"viability, T/C",[15],4.39%
same,"viability, T/C",[16],3.1%
same,"viability, T/C",[43],78%
same,"viability, T/C",[44],15.3%
same,"viability, T/C",[19],5.38%
same,"viability, T/C",[20],4.93%
same,"viability, T/C",[21],3.71%
same,"viability, T/C",[22],3.25%
same,"viability, T/C",[45],69.9%
same,"viability, T/C",[46],16%
same,"viability, T/C",[25],5.86%
same,"viability, T/C",[26],5.17%
same,"viability, T/C",[27],4.05%
same,"viability, T/C",[28],2.85%
same,"viability, T/C",[47],76.6%
same,"viability, T/C",[48],15.7%
same,"viability, T/C",[31],5.87%
same,"viability, T/C",[32],4.92%
same,"viability, T/C",[33],4.34%
same,"viability, T/C",[34],3.21%
Cn1ncnc1[C@H]1c2n[nH]c(=O)c3cc(F)cc(c23)N[C@@H]1c1ccc(F)cc1 + Cc1cccc(N(C)C(=O)C2C(O)CCN2c2nc(C)cc(C(F)(F)F)c2C#N)c1,IC50,second compound 0.0316 µM,10.2 nM
same,IC50,second compound 0.1 µM,17.9 nM
same,IC50,second compound 0.316 µM,14.2 nM
same,IC50,second compound 1 µM,6.63 nM
same,IC50,second compound 3.16 µM,12 nM
same,IC50,second compound 10 µM,6.59 nM
same,"viability, T/C","second compound 0.0316 µM, first compound 0.000316 µM",79.7%
same,"viability, T/C","second compound 0.0316 µM, first compound 0.001 µM",88.5%
same,"viability, T/C",[37],79%
same,"viability, T/C",[38],48.3%
same,"viability, T/C",[1],39.4%
same,"viability, T/C",[2],25.8%
same,"viability, T/C","second compound 0.1 µM, first compound 0.000316 µM",103%
same,"viability, T/C","second compound 0.1 µM, first compound 0.001 µM",93.2%
same,"viability, T/C",[39],58.9%
same,"viability, T/C",[40],69%
same,"viability, T/C",[7],39.2%
same,"viability, T/C",[8],30%
same,"viability, T/C","second compound 0.316 µM, first compound 0.000316 µM",65.8%
same,"viability, T/C","second compound 0.316 µM, first compound 0.001 µM",82.8%
same,"viability, T/C",[41],85.4%
same,"viability, T/C",[42],57.6%
same,"viability, T/C",[13],36.8%
same,"viability, T/C",[14],28.6%
same,"viability, T/C","second compound 1 µM, first compound 0.000316 µM",89.3%
same,"viability, T/C","second compound 1 µM, first compound 0.001 µM",97.8%
same,"viability, T/C",[43],68.8%
same,"viability, T/C",[44],42.5%
same,"viability, T/C",[19],46.1%
same,"viability, T/C",[20],29.5%
same,"viability, T/C","second compound 3.16 µM, first compound 0.000316 µM",99.1%
same,"viability, T/C","second compound 3.16 µM, first compound 0.001 µM",80%
same,"viability, T/C",[45],72.4%
same,"viability, T/C",[46],47.4%
same,"viability, T/C",[25],41.3%
same,"viability, T/C",[26],28.4%
same,"viability, T/C","second compound 10 µM, first compound 0.000316 µM",64.5%
same,"viability, T/C","second compound 10 µM, first compound 0.001 µM",86%
same,"viability, T/C",[47],54.8%
same,"viability, T/C",[48],47.1%
same,"viability, T/C",[31],30.4%
same,"viability, T/C",[32],29.7%
